The subject of series [1] is MDS/AML cell lines (MDSL, TF1, THP1, HL60). Description: Viable cell growth (trypan blue exclusion) of MDS/AML cell lines. It counts as cell-based, human. Particulars: IRAK-Inh 10 μM, ABT-263 0.1 μM. The procedure:
Acute myeloid leukemic cell lines, HL60, THP1, and TF-1 were purchased from the American Type Culture Collection. MOLM13 were purchased from AddexBio. The myelodysplastic cell line, MDS-L, was provided by Dr. Kaoru Tohyama (Kawasaki Medical School, Okayama, Japan) (Matsuoka et al., 2010). […] Additionally, both the MDSL and TF-1 cell lines were cultured in the presence of 10 ng/mL human recombinant IL-3 (Stemcell Technologies).

The subject of series [2] is MDSL cells. Briefly: MDSL xenograft, cells pre-treated in vitro, NSGS mice. It counts as in vivo. Particulars: MDSL treated in vitro with IRAK-Inh 10 μM and/or ABT-263 0.1 μM; DMSO 28 days. Here is the method: Xenograftment of NOD/SCID-IL2Rγ(NSG) and NSG-hSCF/hGM-CSF/hIL3 (NSGS) MDSL cells (1×10^6-5×10^6) were injected into the tail veins of 8-week old sublethally irradiated ([…]) NSG or NSG animals engineered to express human SCF, GM-CSF, and IL3 (NSGS) as previously described (Wunderlich et al., 2010). Mice were monitored by performing complete blood counts (Drew Hemavet 950FS). Following red cell lysis, human MDSL cells were identified by hCD45-FITC staining. In vivo delivery of IRAK-Inh approach is adapted from previous reports (Yang et al., 2011): IRAK-Inh was diluted in DMSO (5 mM) and further dissolved in sterile phosphate buffered saline (PBS; pH 7.2). Animals were injected i.p. with 2.12 mg/kg IRAK-Inh 3× weekly.
To determine whether IRAK-Inh can delay human MDS-like disease in vivo, MDSL were pre-treated with IRAK-Inh (10 μM) for 24 hrs in vitro and subsequently injected intravenously (i.v.) into NSG (5×10^6 cells) and NSGS (1×10^6 cells) recipient mice (FIG. 4A). This approach permitted us to evaluate the cell autonomous effect of IRAK-Inh on MDS cell viability and engraftment without altering endogenous IRAK1 function in the mouse.
Moreover, we investigated whether combined IRAK1 and BCL2 inhibition could delay human MDS-like disease in vivo. MDSL cells were treated with IRAK-Inh (10 μM) and/or ABT-263 (0.1 μM) for 48 hrs in vitro and subsequently injected i.v. into NSGS mice (FIG. 4A).

The test system of series [3] is normal CD34+ cells. Description: Colony formation in methylcellulose, normal CD34+ cells. Particulars: individual or combination treatment.
Procedure: The effect of IRAK-Inh on leukemic progenitor function was evaluated in methylcellulose containing IRAK-Inh. […] As an alternative approach, MDS/AML cells were pre-treated with IRAK-Inh for 24 hours and then plated in methylcellulose.

`CC1(C)CCC(c2ccc(Cl)cc2)=C(CN2CCN(c3ccc(C(=O)NS(=O)(=O)c4ccc(N[C@H](CCN5CCOCC5)CSc5ccccc5)c(S(=O)(=O)C(F)(F)F)c4)cc3)CC2)C1` [ABT-263]: in series [1] (HL60, alone or combined), the “sensitivity of HL60 cells” value is given as “refractory”. Also, in series [1] (alone or co-treatment), the “MDS/AML cell line growth and survival” value was “modest effects”. Also, the median survival in series [2] was approximately 35 days. Also, the “viability and hematopoietic progenitor function of normal CD34+ cells” value in series [3] is “not affected”.

Values taken from patent publication US9855273B2, “Combination therapy for MDS” (priority 2013, dated 2018).
